Experiments:
D2 dopamine receptor = D2 dopamine receptor (Rattus norvegicus (Rat), UniProt P61169); experiment: Affinity on dopamine D2 receptor, competition with [3H] Spiperone; type: binding; set-up: D2 receptor inhibition ratio (%): concentration or dose not given beside the values
dopamine D2 receptor = dopamine D2 receptor (Homo sapiens (Human), UniProt P14416); experiment: Radioligand binding assay, D2 receptor, HEK293T membrane homogenates; set-up: D2 Inhibition (%): concentration or dose not given beside the values; details: HEK293T membranes, [3H]Spiperone
dopamine D2 receptor, sequence (P14416 whole entry, species assumed): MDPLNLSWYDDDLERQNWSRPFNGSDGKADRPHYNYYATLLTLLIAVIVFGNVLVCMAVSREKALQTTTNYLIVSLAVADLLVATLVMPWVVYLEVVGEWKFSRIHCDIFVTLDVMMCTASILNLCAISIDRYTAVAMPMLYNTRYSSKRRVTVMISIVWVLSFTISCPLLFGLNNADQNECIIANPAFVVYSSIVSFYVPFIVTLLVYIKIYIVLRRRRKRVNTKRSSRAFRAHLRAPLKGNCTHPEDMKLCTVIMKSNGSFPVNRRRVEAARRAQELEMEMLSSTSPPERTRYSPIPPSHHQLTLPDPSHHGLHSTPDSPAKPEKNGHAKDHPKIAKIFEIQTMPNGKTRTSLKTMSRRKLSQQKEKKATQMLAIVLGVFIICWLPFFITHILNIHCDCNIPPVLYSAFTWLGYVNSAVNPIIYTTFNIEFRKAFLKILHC
Method: (§1) The affinity of compounds to D1 and D2 dopamine receptors were determined by competition binding assays. Membrane homogenates of HEK293T cells were stably transfected with D1, or D2 receptors. […] The reaction was started by addition of membranes ([…]) and stopped by rapid filtration through Whatman GF/B glassfiber filter and subsequently washed with cold buffer (50 mM Tris, 5 mM EDTA, pH 7.4) using a Brandel 24-well cell harvester. Scintillation cocktail was added and the radioactivity was determined in a MicroBeta liquid scintillation counter. The IC50 and Ki values were calculated by nonlinear regression (PRISM, Graphpad, San Diego, Calif.) using a sigmoidal function.

5-HT1A receptor = 5-HT1A receptor (Homo sapiens (Human), UniProt P08908); experiment: Affinity on 5-HT1A receptor, competition with [3H] 8-OH-DPAT; type: binding
5-HT1A receptor, sequence (P08908 whole entry): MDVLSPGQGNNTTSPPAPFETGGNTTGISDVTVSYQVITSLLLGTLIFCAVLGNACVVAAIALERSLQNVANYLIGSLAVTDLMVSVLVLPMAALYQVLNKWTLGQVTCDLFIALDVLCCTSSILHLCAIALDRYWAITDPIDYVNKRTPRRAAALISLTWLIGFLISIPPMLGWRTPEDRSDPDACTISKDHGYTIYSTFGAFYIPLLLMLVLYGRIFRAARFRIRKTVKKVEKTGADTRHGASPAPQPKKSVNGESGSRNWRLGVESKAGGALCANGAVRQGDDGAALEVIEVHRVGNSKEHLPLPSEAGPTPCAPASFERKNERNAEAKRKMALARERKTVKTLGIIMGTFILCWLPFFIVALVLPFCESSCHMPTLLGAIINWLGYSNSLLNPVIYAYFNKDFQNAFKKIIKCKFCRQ
Method: (§2) (1). Determination of the Affinity of Hexahydrodibenzo[a,g]Quinolizine Compound of General Formula I and Derivatives Thereof on Dopamine D1, Dopamine D2, 5-HT1A, and 5-HT2A Receptor.
(§3) 1) The Experimental Method
(§4) Different concentrations (10^−5 M-10^−11 M) of the compound of the invention and corresponding isotope receptor ligand as well as receptor protein were loaded into the reaction tube and incubated in 30° C. water bath for 60 minutes. The reaction was terminated in a refrigerator. The reaction mixture was put in a Millipore filter (millipore) cell sample collector, filtered through suction filtration using GF/C glass fiber filter paper, and dried. The resulting sample was placed into 0.5 mL tube. 500 μL liquid scintillation fluid was added and intensity of radioactivity was determined by counting.
(§5) (2) the Experimental Materials for Receptor Binding
8-OH-DPAT; 5-HT1A receptor protein expressed in HEK-293 cells;
(§6) Firstly, the above […] are dissolved in DMSO and then diluted with double distilled water to the appropriate concentration (10^−5 M-10^−11 M).
(§7) (+) Butaclamo purchased from RBI company, GF/C glass fiber filter paper purchased from Whatman Co., scintillation fluid (dopamine D1, D2 receptors)/liposoluble scintillation fluid (5-HT1A, 5-HT2A receptor), Beckman LS-6500 multi-function liquid scintillation counter.

D1 receptor = D1 receptor (Homo sapiens (Human), UniProt P21728); experiment: [35S]GTPγS binding assay for D1 receptor; type: biochemical
D1 receptor, sequence (P21728 whole entry): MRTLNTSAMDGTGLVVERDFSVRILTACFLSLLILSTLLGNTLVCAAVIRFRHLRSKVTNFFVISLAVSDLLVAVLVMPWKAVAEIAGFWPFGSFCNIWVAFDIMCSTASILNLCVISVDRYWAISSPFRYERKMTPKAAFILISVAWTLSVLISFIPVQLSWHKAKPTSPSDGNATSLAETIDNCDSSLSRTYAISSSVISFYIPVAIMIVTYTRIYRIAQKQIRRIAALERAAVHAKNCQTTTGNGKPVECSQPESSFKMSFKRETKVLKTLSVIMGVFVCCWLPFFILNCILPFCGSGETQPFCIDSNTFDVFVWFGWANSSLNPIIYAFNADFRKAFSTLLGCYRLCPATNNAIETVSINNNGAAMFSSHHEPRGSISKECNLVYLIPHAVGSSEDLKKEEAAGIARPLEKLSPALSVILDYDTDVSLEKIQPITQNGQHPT

5-HT2A receptor = 5-HT2A receptor (Homo sapiens (Human), UniProt P28223); experiment: Affinity on 5-HT2A receptor, competition with [3H]-Ketanserin; type: binding
5-HT2A receptor, sequence (P28223 whole entry): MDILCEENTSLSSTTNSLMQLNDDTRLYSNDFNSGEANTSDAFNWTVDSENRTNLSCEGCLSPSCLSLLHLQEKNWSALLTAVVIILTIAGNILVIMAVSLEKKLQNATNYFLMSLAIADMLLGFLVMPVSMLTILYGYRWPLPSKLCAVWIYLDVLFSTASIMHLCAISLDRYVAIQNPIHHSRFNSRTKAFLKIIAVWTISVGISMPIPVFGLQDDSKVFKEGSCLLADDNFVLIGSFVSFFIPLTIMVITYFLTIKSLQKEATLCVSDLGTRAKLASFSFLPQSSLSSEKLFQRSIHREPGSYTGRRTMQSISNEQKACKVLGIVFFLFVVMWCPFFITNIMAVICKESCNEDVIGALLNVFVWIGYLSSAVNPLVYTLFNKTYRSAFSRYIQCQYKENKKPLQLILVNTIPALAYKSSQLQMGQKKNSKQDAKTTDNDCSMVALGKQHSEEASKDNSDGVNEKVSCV
Method: as §2, §3, §4, §5, §6, §7

dopamine D1 receptor = dopamine D1 receptor (Macaca mulatta (Rhesus macaque), UniProt O77680); experiment: Affinity on dopamine D1 receptor, competition with [3H] SCH23390; type: binding; set-up: D1 receptor inhibition ratio (%): concentration or dose not given beside the values
dopamine D1 receptor, sequence (O77680 whole entry): as the sequence (P21728 whole entry) above, with N311I counted along it

D1 dopamine receptors = D1 dopamine receptors (Homo sapiens (Human), UniProt P21728); experiment: Radioligand binding assay, D1 receptor, HEK293T membrane homogenates; details: HEK293T membranes, [3H]SCH23390
D1 dopamine receptors, sequence (P21728 whole entry): as the sequence (P21728 whole entry) above
Method: as §1

[1] = according to CN101037436; cited from earlier work

D2 dopamine receptor, sequence (P61169 whole entry): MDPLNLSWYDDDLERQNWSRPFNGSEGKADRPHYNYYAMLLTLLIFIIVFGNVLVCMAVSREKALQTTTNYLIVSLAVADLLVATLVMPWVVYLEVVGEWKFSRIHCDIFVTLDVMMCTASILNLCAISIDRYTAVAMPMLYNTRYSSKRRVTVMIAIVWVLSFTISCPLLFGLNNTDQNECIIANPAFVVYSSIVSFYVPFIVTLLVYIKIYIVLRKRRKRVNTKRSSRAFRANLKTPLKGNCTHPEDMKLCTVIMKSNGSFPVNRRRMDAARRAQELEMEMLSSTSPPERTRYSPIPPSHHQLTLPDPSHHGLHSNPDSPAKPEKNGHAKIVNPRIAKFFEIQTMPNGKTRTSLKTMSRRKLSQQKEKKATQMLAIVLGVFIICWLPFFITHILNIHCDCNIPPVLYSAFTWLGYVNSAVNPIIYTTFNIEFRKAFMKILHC

COc1cc2c(cc1O)[C@@H]1Cc3c(OC)ccc(OC)c3CN1CC2 [DC037030, S-(−)-2-hydroxy-3,9,12-trimethoxy-5,8,13,13a-tetrahydro-6H-dibenzo[a,g]quinolizine]
D2 receptor inhibition ratio (%) (D2 dopamine receptor): 74.27%
affinity on dopamine D2 receptor (in words) (D2 dopamine receptor; summary of the tables): strong affinity
D2 Inhibition (%) (dopamine D2 receptor): 74.27%
5-HT1A receptor inhibition ratio (%) (5-HT1A receptor): 80.41%
IC50 (5-HT1A receptor): 0.626 µM
Ki (5-HT1A receptor): 0.493 µM
D1 antagonist Imax % (D1 receptor; [35S]GTPγS binding): 86.8 ± 1.6%
IC50 (D1 receptor; [35S]GTPγS binding, read-out: D1 antagonist IC50): 1.9 ± 0.4 µM
D1 receptor antagonistic activity (in words) (D1 receptor; summary of Table 10): D1 receptor antagonistic activity
D1 receptor selectivity (in words) (D1 receptor; summary of Table 10): good D1 receptor selectivity
5-HT2A receptor inhibition ratio (%) (5-HT2A receptor): 39.99%
D1 receptor inhibition ratio (%) (dopamine D1 receptor): 99.89%
IC50 (dopamine D1 receptor): 0.00722 µM
Ki (dopamine D1 receptor): 0.0037 µM
affinity on dopamine D1 receptor (in words) (dopamine D1 receptor; summary of the tables): strong affinity
Ki (D1 dopamine receptors): 0.0037 ± 0.00026 µM

COc1cc2c(cc1O)[C@@H]1Cc3ccc(O)c(OC)c3CN1CC2 [l-SPD, l-Stepholidine]
oral bioavailability [1]: 6.83%

COc1cc(OC)c2c(c1CO)C[C@H]1c3cc4c(cc3CCN1C2)OCO4 [DC037077, (S)-2,3-methylenedioxy-9,11-bimethoxy-12-hydroxymethyl-5,8,13,13a-tetrahydro-6H-dibenzo[a,g]quinolizine]
D2 receptor inhibition ratio (%) (D2 dopamine receptor): 41.75%
5-HT1A receptor inhibition ratio (%) (5-HT1A receptor): 88.63%
IC50 (5-HT1A receptor): 0.758 µM
Ki (5-HT1A receptor): 0.6 µM
5-HT2A receptor inhibition ratio (%) (5-HT2A receptor): 45.63%
D1 receptor inhibition ratio (%) (dopamine D1 receptor): 97.33%
IC50 (dopamine D1 receptor): 0.324 µM
Ki (dopamine D1 receptor): 0.182 µM

COc1cc2c(c(OC)c1)CN1CCc3cc(OC)c(OC)cc3[C@@H]1C2 [DC037075, (S)-2,3,9,11-tetramethoxy-5,8,13,13a-tetrahydro-6H-dibenzo[a,g]quinolizine]
D2 receptor inhibition ratio (%) (D2 dopamine receptor): 39.50%
5-HT1A receptor inhibition ratio (%) (5-HT1A receptor): 90.77%
IC50 (5-HT1A receptor): 0.922 µM
Ki (5-HT1A receptor): 0.73 µM
5-HT2A receptor inhibition ratio (%) (5-HT2A receptor): 54.04%
D1 receptor inhibition ratio (%) (dopamine D1 receptor): 97.88%
IC50 (dopamine D1 receptor): 0.114 µM
Ki (dopamine D1 receptor): 0.0641 µM

Source: US9359372B2, “Hexahydrodibenzo[a,g]quinolizine compound, preparation method thereof, pharmaceutical composition and use thereof” (SHANGHAI INSTITUTE OF MATERIA MEDICA, CHINESE ACADEMY OF …, priority 2011, dated 2016)
